# Reference: paper PMC12118337, “Development of a Peptide Inhibitor Targeting the C‐SH2 Domain of the SHP2 Phosphatase” (Chembiochem, 2025)
# Non-standard residues stand in square brackets, D forms with d. Residues, ends and D or L forms follow the SMILES beside them. *: point of attachment. 5FAM = O=C1OC2(c3ccc(O)cc3Oc3cc(O)ccc32)c2ccc(C(=O)*)cc21; F2Pmp = N[C@@H](Cc1ccc(C(F)(F)P(=O)(O)O)cc1)C(=O)O; Pmp = N[C@@H](Cc1ccc(CP(=O)(O)O)cc1)C(=O)O; pY = N[C@@H](Cc1ccc(OP(=O)(O)O)cc1)C(=O)O; X1 = O=C(O)C(C(=O)O)*
# What was measured:
# [1] = biological target: T1, SHP2 N‐SH2 domain (Homo sapiens, UniProt Q06124); assay: Fluorescence polarization (FP) binding assay, SHP2 N-SH2 domain; details: 100 nM FAM-labelled peptide; for Kd: increasing N-SH2 protein, 50 mM HEPES pH 7.5, 150 mM NaCl, 1 mM EDTA, 0.05% Tween 20, FP at 10 min, three independent experiments in technical triplicates, read-out: K D ± SEM, N‐SH2 (FP)
# T1 construct: SHP2 N-SH2 domain (1–105), C-SH2 domain (106–220), PTP domain (224–541) and; His6 (pETM22 vector) (N, cleaved yes); made in house; host or cells: E. coli BL21(DE3)
# T1 sequence (Q06124 1-105): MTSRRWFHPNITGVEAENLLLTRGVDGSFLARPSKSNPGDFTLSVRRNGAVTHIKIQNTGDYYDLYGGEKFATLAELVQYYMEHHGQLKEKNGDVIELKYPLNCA
# Procedure: (§1) buffer and stored in 5 mL binding buffer at 4°C. His-tagged 3C protease (0.5 mg; EMBL) was added to the pooled eluted fractions and dialysed using Spectra Por Dialysis Tubing (MWCO 6-8 kDa, 23 mm; Spectrum Labs) in 1 L of binding buffer at 4°C for 3 hours, then overnight in fresh buffer. A new column was prepared by loading 2 mL Ni-NTA Agarose (Invitrogen) as a 50% slurry in EtOH. The column was washed with 10 mL H2O to remove the EtOH and equilibrated with 10 mL binding buffer. The protein/3C protease mixture was loaded onto the column and incubated for 1 hour at 4°C on a rocker. The flow through containing the protein was collected, the column was washed with 100 mL binding buffer and the 3C protease was eluted with 5 mL elution buffer. Protein purification was monitored by SDS-PAGE using NuPAGE 4-12% Bis-Tris Protein Gels (Invitrogen) run in MOPS buffer (50 mM MOPS, 50 mM Tris-HCl pH 7.7, 1 mM EDTA, 0.1% SDS) followed by Coomassie staining using Coomassie Brilliant Blue (Roth). The purified protein was dialysed into the final storage buffer (50 mM HEPES pH 7.5, 150 mM NaCl, 2 mM DTT, 20% glycerol). Aliquots were prepared and stored at -80°C until required. […]
# (§2) 4. Fluorescence polarization
# (§3) Fluorescence polarization (FP) was used to measure the binding of FAM-labelled peptides to the SHP2 C-SH2, SHP2 N-SH2, SHP2 PTP, CSK SH2 or Src SH2 domains. Each peptide was added to increasing concentrations of SHP2 C-SH2, SHP2 N-SH2, SHP2 PTP, CSK SH2 or Src SH2 protein in FP buffer (50 mM HEPES pH 7.5, 150 mM NaCl, 1 mM EDTA, 0.05% Tween 20) to give a final peptide […]
# (§4) concentration of 100 nM in a final volume of 200 µL. For baseline subtraction, each peptide was added to FP buffer, instead of protein, with a final peptide concentration of 100 nM in a final volume of 200 µL. Samples were mixed gently then 3 x 60 µL of each sample was transferred into triplicate wells in a 96-well plate (OptiPlate-96 F Black; PerkinElmer). The FP was immediately measured on a Synergy H1 Microplate Reader (BioTek) with the excitation and emission monitored at 485 nm and 528 nm, respectively, over 30 minutes. FP values were automatically calculated by the Gen5 3.03 (BioTek) software associated with the microplate reader. Data were analysed in Excel 2016 by subtracting baseline values from FP values at 10 minutes. Data were then further analysed in GraphPad Prism 6 by plotting the baseline subtracted FP values against the protein concentration and fitting the data to a variable slope model of non-linear regression to obtain the KD values. Data are from three independent experiments, each performed in technical triplicates.
# (§5) 5. Isothermal titration calorimetry […]
# (§6) Analysis Software (Malvern Panalytical). For the data analysis, a 1:1 binding stoichiometry between the Ac-ITSM(pTyr) and SH2 domain was assumed. ITC measurements were performed once.
# [2] = biological target: T2, SHP2 C‐SH2 domain (Homo sapiens, UniProt Q06124); assay: Fluorescence polarization (FP) binding assay, SHP2 C-SH2 domain; details: 100 nM FAM-labelled peptide; for Kd: read-out: K D ± SEM, C‐SH2 (FP)
# T2 construct: SHP2 N-SH2 domain (1–105), C-SH2 domain (106–220), PTP domain (224–541) and; His6 (pETM22 vector) (N, cleaved yes); made in house; host or cells: E. coli BL21(DE3)
# T2 sequence (Q06124 106-220): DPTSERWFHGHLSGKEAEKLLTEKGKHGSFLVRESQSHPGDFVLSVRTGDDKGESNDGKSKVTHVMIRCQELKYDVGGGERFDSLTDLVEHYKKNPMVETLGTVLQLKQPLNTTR
# Procedure: as §1, §2, §3, §4, §5, §6
# [3] = increasing C-SH2 protein, 50 mM HEPES pH 7.5, 150 mM NaCl, 1 mM EDTA, 0.05% Tween 20, FP at 10 min, three independent experiments in technical triplicates
Compound,"binding to the N‐SH2 domain, in words [1]",Kd [1],"binding to the C‐SH2 domain, in words [2]","Kd [2, 3]","K D ± SEM, C‐SH2 (FP) [2, 3]"
CC[C@H](C)[C@H](NC(=O)[C@@H](NC(=O)[C@H](C)NC(=O)[C@H](Cc1ccc(C(F)(F)P(=O)(O)O)cc1)NC(=O)[C@H](CCC(=O)O)NC(=O)[C@@H](NC(=O)[C@H](CCC(N)=O)NC(=O)[C@H](CCC(=O)O)NC(=O)c1ccc2c(c1)C(=O)OC21c2ccc(O)cc2Oc2cc(O)ccc21)[C@@H](C)O)[C@@H](C)O)C(=O)N[C@H](C(=O)N[C@@H](Cc1ccccc1)C(=O)N1CCC[C@H]1C(N)=O)C(C)C [FAM‐ITSM(F2Pmp)] (5FAM-EQTE[F2Pmp]ATIVFP-NH2),slightly better binding than FAM‐ITSM(L‐OMT),1390 ± 63 nM,marked decrease in binding affinity,> 2000 nM,
CC[C@H](C)[C@H](NC(=O)[C@@H](NC(=O)[C@H](C)NC(=O)[C@H](Cc1ccc(OC(C(=O)O)C(=O)O)cc1)NC(=O)[C@H](CCC(=O)O)NC(=O)[C@@H](NC(=O)[C@H](CCC(N)=O)NC(=O)[C@H](CCC(=O)O)NC(=O)c1ccc2c(c1)C(=O)OC21c2ccc(O)cc2Oc2cc(O)ccc21)[C@@H](C)O)[C@@H](C)O)C(=O)N[C@H](C(=O)N[C@@H](Cc1ccccc1)C(=O)N1CCC[C@H]1C(N)=O)C(C)C [FAM‐ITSM(L‐OMT)] (5FAM-EQTEY(X1)ATIVFP-NH2),,1710 ± 105 nM,retained binding,257 ± 8.3 nM,
CC[C@H](C)[C@H](NC(=O)[C@@H](NC(=O)[C@H](C)NC(=O)[C@H](Cc1ccc(CP(=O)(O)O)cc1)NC(=O)[C@H](CCC(=O)O)NC(=O)[C@@H](NC(=O)[C@H](CCC(N)=O)NC(=O)[C@H](CCC(=O)O)NC(=O)c1ccc2c(c1)C(=O)OC21c2ccc(O)cc2Oc2cc(O)ccc21)[C@@H](C)O)[C@@H](C)O)C(=O)N[C@H](C(=O)N[C@@H](Cc1ccccc1)C(=O)N1CCC[C@H]1C(N)=O)C(C)C [FAM‐ITSM(Pmp)] (5FAM-EQTE[Pmp]ATIVFP-NH2),greatly reduced binding,> 10000 nM,marked decrease in binding affinity,> 2000 nM,
"CC[C@H](C)[C@H](NC(=O)[C@@H](NC(=O)[C@H](C)NC(=O)[C@H](Cc1ccc(OP(=O)(O)O)cc1)NC(=O)[C@H](CCC(=O)O)NC(=O)[C@@H](NC(=O)[C@H](CCC(N)=O)NC(=O)[C@H](CCC(=O)O)NC(=O)c1ccc2c(c1)C(=O)OC21c2ccc(O)cc2Oc2cc(O)ccc21)[C@@H](C)O)[C@@H](C)O)C(=O)N[C@H](C(=O)N[C@@H](Cc1ccccc1)C(=O)N1CCC[C@H]1C(N)=O)C(C)C [FAM‐ITSM(pTyr), reference compound] (5FAM-EQTE[pY]ATIVFP-NH2)",,164 ± 19.5 nM,,48.9 nM,
CC[C@H](C)[C@H](NC(=O)[C@@H](NC(=O)[C@H](C)NC(=O)[C@H](Cc1ccc(OP(=O)(O)O)cc1)NC(=O)[C@H](C)NC(=O)[C@@H](NC(=O)[C@H](CCC(N)=O)NC(=O)[C@H](CCC(=O)O)NC(=O)c1ccc2c(c1)C(=O)OC21c2ccc(O)cc2Oc2cc(O)ccc21)[C@@H](C)O)[C@@H](C)O)C(=O)N[C@H](C(=O)N[C@@H](Cc1ccccc1)C(=O)N1CCC[C@H]1C(N)=O)C(C)C [compound 4] (5FAM-EQTA[pY]ATIVFP-NH2),,234 ± 17.6 nM,,95.1 ± 14.4 nM,
CC[C@H](C)[C@H](NC(=O)[C@H](C)NC(=O)[C@H](C)NC(=O)[C@H](Cc1ccc(OP(=O)(O)O)cc1)NC(=O)[C@H](CCC(=O)O)NC(=O)[C@@H](NC(=O)[C@H](CCC(N)=O)NC(=O)[C@H](CCC(=O)O)NC(=O)c1ccc2c(c1)C(=O)OC21c2ccc(O)cc2Oc2cc(O)ccc21)[C@@H](C)O)C(=O)N[C@H](C(=O)N[C@@H](Cc1ccccc1)C(=O)N1CCC[C@H]1C(N)=O)C(C)C [compound 5] (5FAM-EQTE[pY]AAIVFP-NH2),,1140 ± 585 nM,,126 ± 6.2 nM,
CC(C)[C@H](NC(=O)[C@H](C)NC(=O)[C@@H](NC(=O)[C@H](C)NC(=O)[C@H](Cc1ccc(OP(=O)(O)O)cc1)NC(=O)[C@H](CCC(=O)O)NC(=O)[C@@H](NC(=O)[C@H](CCC(N)=O)NC(=O)[C@H](CCC(=O)O)NC(=O)c1ccc2c(c1)C(=O)OC21c2ccc(O)cc2Oc2cc(O)ccc21)[C@@H](C)O)[C@@H](C)O)C(=O)N[C@@H](Cc1ccccc1)C(=O)N1CCC[C@H]1C(N)=O [compound 6] (5FAM-EQTE[pY]ATAVFP-NH2),,> 10000 nM,,,no binding
CC[C@H](C)[C@H](NC(=O)[C@@H](NC(=O)[C@H](C)NC(=O)[C@H](Cc1ccc(OP(=O)(O)O)cc1)NC(=O)[C@H](CCC(=O)O)NC(=O)[C@@H](NC(=O)[C@H](CCC(N)=O)NC(=O)[C@H](CCC(=O)O)NC(=O)c1ccc2c(c1)C(=O)OC21c2ccc(O)cc2Oc2cc(O)ccc21)[C@@H](C)O)[C@@H](C)O)C(=O)N[C@@H](C)C(=O)N[C@@H](Cc1ccccc1)C(=O)N1CCC[C@H]1C(N)=O [compound 7] (5FAM-EQTE[pY]ATIAFP-NH2),,1080 ± 84 nM,,> 2000 nM,
CC[C@H](C)[C@H](NC(=O)[C@@H](NC(=O)[C@H](C)NC(=O)[C@H](Cc1ccc(OP(=O)(O)O)cc1)NC(=O)[C@H](CCC(=O)O)NC(=O)[C@@H](NC(=O)[C@H](CCC(N)=O)NC(=O)[C@H](CCC(=O)O)NC(=O)c1ccc2c(c1)C(=O)OC21c2ccc(O)cc2Oc2cc(O)ccc21)[C@@H](C)O)[C@@H](C)O)C(=O)N[C@H](C(=O)N[C@@H](C)C(=O)N1CCC[C@H]1C(N)=O)C(C)C [compound 8] (5FAM-EQTE[pY]ATIVAP-NH2),,> 2000 nM,,185 ± 30.8 nM,
CC[C@H](C)[C@H](NC(=O)[C@@H](NC(=O)[C@H](C)NC(=O)[C@H](Cc1ccc(OP(=O)(O)O)cc1)NC(=O)[C@H](CCC(=O)O)NC(=O)[C@@H](NC(=O)[C@H](CCC(N)=O)NC(=O)c1ccc2c(c1)C(=O)OC21c2ccc(O)cc2Oc2cc(O)ccc21)[C@@H](C)O)[C@@H](C)O)C(=O)N[C@@H](CCCCN)C(=O)N[C@H](C(=O)N1CCC[C@H]1C(N)=O)[C@@H](C)CC [compound 12] (5FAM-QTE[pY]ATIKIP-NH2),,,,141 ± 6.2 nM,
CC[C@H](C)[C@H](NC(=O)[C@@H](NC(=O)[C@H](C)NC(=O)[C@H](Cc1ccc(OP(=O)(O)O)cc1)NC(=O)[C@H](CCC(=O)O)NC(=O)[C@@H](NC(=O)[C@H](CCCCN)NC(=O)c1ccc2c(c1)C(=O)OC21c2ccc(O)cc2Oc2cc(O)ccc21)[C@@H](C)O)[C@@H](C)O)C(=O)N[C@@H](CCCCN)C(=O)N[C@@H](Cc1c[nH]cn1)C(=O)N1CCC[C@H]1C(N)=O [compound 19] (5FAM-KTE[pY]ATIKHP-NH2),,,,105 ± 3.6 nM,
CC[C@H](C)[C@H](NC(=O)[C@@H](NC(=O)[C@H](C)NC(=O)[C@H](Cc1ccc(OP(=O)(O)O)cc1)NC(=O)[C@H](CCC(=O)O)NC(=O)[C@H](CCC(=O)O)NC(=O)[C@H](CCCCN)NC(=O)c1ccc2c(c1)C(=O)OC21c2ccc(O)cc2Oc2cc(O)ccc21)[C@@H](C)O)C(=O)N[C@@H](CCCCN)C(=O)N[C@@H](Cc1c[nH]cn1)C(=O)N1CCC[C@H]1C(N)=O [compound 20] (5FAM-KEE[pY]ATIKHP-NH2),,,,> 500 nM,
